Reference: paper PMC4488959, “Structural Features of a Bacteroidetes-Affiliated Cellulase Linked with a Polysaccharide Utilization Locus” (Scientific Reports, 2015)

Target: T1, AC2aCel5A (Bacteroidetes bacterium AC2a, UniProt A0A076MPD7, E189A)
T1 construct: signal peptide (residues 1-18) removed; mature 397 residues + C-terminal eight-residue His6-tag (405 residues), tag kept; synthetic gene, pNIC-CH, Escherichia coli
Test: X-ray crystal structure (co-crystallization with […] cellotetraose)
Type: binding
Conditions: 2.4 Å; subsites -3 to -1, molecule A only; crystals from 0.2 M potassium nitrate, 20% w/v PEG 3350; catalytically inactive mutant; authors consider that bound ligand is likely cellotetraose with fourt

T1 sequence (A0A076MPD7 entry or part of it E189A): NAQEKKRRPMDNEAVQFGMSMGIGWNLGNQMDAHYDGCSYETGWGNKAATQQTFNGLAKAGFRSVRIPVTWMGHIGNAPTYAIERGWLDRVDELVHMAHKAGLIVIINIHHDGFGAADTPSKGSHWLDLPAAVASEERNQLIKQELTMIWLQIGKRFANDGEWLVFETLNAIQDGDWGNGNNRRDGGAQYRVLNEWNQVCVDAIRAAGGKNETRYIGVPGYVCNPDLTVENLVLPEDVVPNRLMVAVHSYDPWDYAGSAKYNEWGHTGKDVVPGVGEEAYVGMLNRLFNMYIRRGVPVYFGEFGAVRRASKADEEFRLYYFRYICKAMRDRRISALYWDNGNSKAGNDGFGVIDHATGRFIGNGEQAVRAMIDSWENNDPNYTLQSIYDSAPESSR

Compound: OC[C@H]1O[C@@H](O[C@H]2[C@H](O)[C@@H](O)[C@H](O[C@H]3[C@H](O)[C@@H](O)C(O)O[C@@H]3CO)O[C@@H]2CO)[C@H](O)[C@@H](O)[C@@H]1O (stereo partly shown) [cellotriose]
- X-ray crystal structure (co-crystallization with 5 mM cellotetraose): Additional electron density was observed in the active-site cleft of molecule A, and was refined
